# Read-outs that look alike come from different tables or passages of the source.
# Tests used:
# [1] = tested on: Staphylococcus aureus 209 P; assay: MIC, in vitro antibacterial activity (standard strains); type: cell-based; settings: Staphylococcus aureus, 209P; 10^6 cells/ml; Gram +; read-out: MIC
# [2] = tested on: S. aureus Smith; assay: as above; type: cell-based, Staphylococcus aureus; settings: Staphylococcus aureus; 10^6 cells/ml; Gram +; read-out: MIC
# [3] = tested on: S. aureus IID 670 (Terajima); assay: as above; type: cell-based, Staphylococcus aureus; settings: Staphylococcus aureus, IID670; 10^6 cells/ml; Gram +; read-out: MIC
# [4] = tested on: S. pyogenes IID 692; assay: as above; type: cell-based, Streptococcus pyogenes; settings: Streptococcus pyogenes, IID692; 10^6 cells/ml; Gram +; read-out: MIC
# [5] = tested on: S. pneumoniae IID 552; assay: as above; type: cell-based; settings: Streptococcus pneumoniae, IID552; 10^6 cells/ml; Gram +; read-out: MIC
# [6] = tested on: E. faecalis IID 682; assay: as above; type: cell-based; settings: Enterococcus faecalis, IID682; 10^6 cells/ml; Gram +; read-out: MIC
# [7] = tested on: Escherichia coli NIHJ JC-2; assay: as above; type: cell-based; settings: Escherichia coli, NIHJJC2; 10^6 cells/ml; Gram -; read-out: MIC
# [8] = tested on: P. mirabilis IID 994; assay: as above; type: cell-based; settings: Proteus mirabilis, IID994; 10^6 cells/ml; Gram -; read-out: MIC
# [9] = tested on: Morganella morganii IID 602; assay: as above; type: cell-based; settings: Morganella morganii, IID602; 10^6 cells/ml; Gram -; read-out: MIC
# [10] = tested on: Klebsiella pneumoniae KY(GN)6445; assay: as above; type: cell-based; settings: Klebsiella pneumoniae; 10^6 cells/ml; Gram -; read-out: MIC
# [11] = tested on: K. pneumoniae 1-220S; assay: as above; type: cell-based, Klebsiella pneumoniae; settings: Klebsiella pneumoniae, 1220S; 10^6 cells/ml; Gram -; read-out: MIC
# [12] = tested on: Enterobacter cloacae IID 977; assay: as above; type: cell-based; settings: Enterobacter cloacae, IID977; 10^6 cells/ml; Gram -; read-out: MIC
# [13] = tested on: Citrobacter freundii IID 976; assay: as above; type: cell-based; settings: Citrobacter freundii, IID976; 10^6 cells/ml; Gram -; read-out: MIC
# [14] = tested on: Shigella sonnei IID 969; assay: as above; type: cell-based; settings: Shigella sonnei, IID969; 10^6 cells/ml; Gram -; read-out: MIC
# Method: Minimal inhibitory concentrations (MICs) were determined in accordance with the method recommended by Japan Society of Chemotherapy.
# [15] = tested on: Salmonella enteritidis IID 604; assay: as above; type: cell-based; settings: Salmonella enterica; 10^6 cells/ml; Gram -; read-out: MIC
# [16] = tested on: Pseudomonas aeruginosa V-1; assay: as above; type: cell-based; settings: Pseudomonas aeruginosa, V1; 10^6 cells/ml; Gram -; read-out: MIC
# [17] = tested on: P. aeruginosa IFO 12689; assay: as above; type: cell-based, Pseudomonas aeruginosa; settings: Pseudomonas aeruginosa, IFO12689; 10^6 cells/ml; Gram -; read-out: MIC
# [18] = tested on: P. aeruginosa IID 1210; assay: as above; type: cell-based, Pseudomonas aeruginosa; settings: Pseudomonas aeruginosa, IID1210; 10^6 cells/ml; Gram -; read-out: MIC
# [19] = tested on: P. cepacia GIFU 518; assay: as above; type: cell-based; settings: Burkholderia cepacia, GIFU518
# [20] = tested on: P. maltophilia GIFU 2491; assay: as above; type: cell-based; settings: Stenotrophomonas maltophilia, GIFU2491; 10^6 cells/ml; Gram -; read-out: MIC
# [21] = tested on: Yersinia enterocolitica IID 981; assay: as above; type: cell-based; settings: Yersinia enterocolitica, IID981
# [22] = tested on: Acinetobacter anitratus IID 876; assay: as above; type: cell-based; settings: Acinetobacter calcoaceticus, IID876; 10^6 cells/ml; Gram -; read-out: MIC
# [23] = tested on: Alcaligenes faecalis 0114002; assay: as above; type: cell-based; settings: Alcaligenes faecalis, 0114002; 10^6 cells/ml; Gram -; read-out: MIC
# [24] = tested on: Bacteroides fragilis GM 7000; assay: as above; type: cell-based; settings: Bacteroides fragilis, GM7000; 10^6 cells/ml; Gram -; read-out: MIC
# [25] = tested on: B. fragilis 25285; assay: as above; type: cell-based, Bacteroides fragilis; settings: Bacteroides fragilis, 25285; 10^6 cells/ml; Gram -; read-out: MIC
# [26] = tested on: B. thetaiotaomicron (0661); assay: as above; type: cell-based; settings: Bacteroides thetaiotaomicron; 10^6 cells/ml; Gram -; read-out: MIC
# [27] = tested on: Fusobacterium mortiferum 4249; assay: as above; type: cell-based; settings: Fusobacterium mortiferum, 4249; 10^6 cells/ml; Gram -; read-out: MIC
# [28] = tested on: Eubacterium lentum GAI 5242; assay: as above; type: cell-based; settings: Eggerthella lenta, GAI5242; 10^6 cells/ml; Gram +; read-out: MIC
# [29] = tested on: Propionibacterium acens 11828; assay: as above; type: cell-based; settings: Propionibacterium, 11828; 10^6 cells/ml; Gram +; read-out: MIC
# [30] = tested on: C. perfringens KYA 13123; assay: microbe, parasite or virus in culture; type: cell-based; settings: Clostridium perfringens, KYA13123
# [31] = tested on: Peptostreptococcus anaerobius KYA 27337; assay: MIC, in vitro antibacterial activity (standard strains); type: cell-based; settings: Peptostreptococcus anaerobius, KYA27337; 10^6 cells/ml; Gram +; read-out: MIC
# [32] = tested on: Veillonella parvula KYA 10790; assay: as above; type: cell-based; settings: Veillonella parvula, KYA10790; 10^6 cells/ml; Gram -; read-out: MIC
# [33] = 10^6 cells/ml, Gram -, read-out: MIC
Structure (SMILES),MIC [1],MIC [2],MIC [3],MIC [4],MIC [5],MIC [6],MIC [7],MIC [8],MIC [9],MIC [10],MIC [11],MIC [12],MIC [13],MIC [14],MIC [15],MIC [16],MIC [17],MIC [18],MIC [20],MIC [22],further results
"C[C@H]1CN(c2c(F)cc3c(=O)c(C(=O)O)cn(C4CC4)c3c2Br)C[C@H]1N (relative stereo) [Example 21, 7-(cis-3-Amino-4-methyl-1-pyrrolidinyl)-8-bromo-1-cyclopropyl-6-fluoro-1,4-dihydro-4-oxo-3-quinolinecarboxylic acid]",0.025 µg/mL,0.025 µg/mL,0.05 µg/mL,0.2 µg/mL,0.2 µg/mL,0.2 µg/mL,0.0063 µg/mL,0.025 µg/mL,0.05 µg/mL,0.0125 µg/mL,0.05 µg/mL,0.025 µg/mL,0.025 µg/mL,0.0063 µg/mL,0.025 µg/mL,0.39 µg/mL,0.78 µg/mL,1.56 µg/mL,0.05 µg/mL,0.025 µg/mL,"MIC [19, 33]: 0.39 µg/mL; MIC [21]: 0.025 µg/mL; MIC [23]: 0.2 µg/mL; MIC [24]: 0.1 µg/mL; MIC [25]: 0.05 µg/mL; MIC [26]: 0.2 µg/mL; MIC [27]: 0.2 µg/mL; MIC [28]: 0.05 µg/mL; MIC [29]: 1.56 µg/mL; MIC [30]: 0.1 µg/mL; MIC [31]: 0.2 µg/mL; MIC [32]: 0.1 µg/mL"
"CC1CN(c2c(F)cc3c(=O)c(C(=O)O)cn(C4CC4)c3c2Cl)CC1CN (stereo not shown) [Example 1, 7-(3-Aminomethyl-4-methyl-1-pyrrolidinyl)-8-chloro-1-cyclopropyl-6-fluoro-1,4-dihydro-4-oxo-3-quinolinecarboxylic acid]",0.0125 µg/mL,0.0125 µg/mL,0.025 µg/mL,0.025 µg/mL,0.0125 µg/mL,0.05 µg/mL,0.025 µg/mL,0.05 µg/mL,0.1 µg/mL,0.05 µg/mL,0.05 µg/mL,0.05 µg/mL,0.05 µg/mL,0.025 µg/mL,0.05 µg/mL,0.1 µg/mL,0.78 µg/mL,0.78 µg/mL,0.1 µg/mL,0.05 µg/mL,"MIC [19]: 0.39 µg/mL; MIC [21, 33]: 0.05 µg/mL; MIC [23]: 0.2 µg/mL; MIC [24]: ≤ 0.1 µg/mL; MIC [25]: ≤ 0.05 µg/mL; MIC [26]: 0.1 µg/mL; MIC [27]: ≤ 0.05 µg/mL; MIC [28]: 0.2 µg/mL; MIC [29]: 0.2 µg/mL; MIC [30]: ≤ 0.05 µg/mL; MIC [31]: ≤ 0.05 µg/mL; MIC [32]: 0.1 µg/mL"
"CCNCC1CN(c2c(F)cc3c(=O)c(C(=O)O)cn(C4CC4)c3c2F)CC1C (stereo not shown) [Example 15, 1-Cyclopropyl-7-(3-ethylaminomethyl-4-methyl-1-pyrrolidinyl)-6,8-difluoro-1,4-dihydro-4-oxo-3-quinolinecarboxylic acid]",0.05 µg/mL,0.05 µg/mL,0.05 µg/mL,0.1 µg/mL,0.1 µg/mL,0.1 µg/mL,0.05 µg/mL,0.1 µg/mL,0.2 µg/mL,0.05 µg/mL,0.2 µg/mL,0.2 µg/mL,0.1 µg/mL,0.05 µg/mL,0.2 µg/mL,0.78 µg/mL,3.13 µg/mL,3.13 µg/mL,0.39 µg/mL,0.1 µg/mL,"MIC [19]: 0.78 µg/mL; MIC [21, 33]: 0.2 µg/mL; MIC [23]: 0.78 µg/mL; MIC [24]: 0.78 µg/mL; MIC [25]: 0.39 µg/mL; MIC [26]: 1.56 µg/mL; MIC [27]: 0.39 µg/mL; MIC [28]: 0.39 µg/mL; MIC [29]: 3.13 µg/mL; MIC [30]: 0.1 µg/mL; MIC [31]: 0.2 µg/mL; MIC [32]: 0.78 µg/mL"
"CC1COc2c(N3C[C@@H](N)[C@@H](C)C3)c(F)cc3c(=O)c(C(=O)O)cn1c23.Cl (relative stereo) [Example 29, 10-(cis-3-Amino-4-methyl-1-pyrrolidinyl)-9-fluoro-2,3-dihydro-3-methyl-7-oxo-7H-pyrido[1,2,3-de][1,4]benzoxazine-6-carboxylic acid hydrochloride]",0.2 µg/mL,0.2 µg/mL,0.39 µg/mL,0.39 µg/mL,0.39 µg/mL,0.39 µg/mL,0.025 µg/mL,0.1 µg/mL,0.2 µg/mL,0.05 µg/mL,0.2 µg/mL,0.2 µg/mL,0.1 µg/mL,0.05 µg/mL,0.1 µg/mL,0.39 µg/mL,1.56 µg/mL,6.25 µg/mL,1.56 µg/mL,1.56 µg/mL,"MIC [19, 33]: 1.56 µg/mL; MIC [21, 33]: 0.2 µg/mL; MIC [23]: 1.56 µg/mL; MIC [24]: 3.13 µg/mL; MIC [25]: 1.56 µg/mL; MIC [26]: 6.25 µg/mL; MIC [27]: 0.78 µg/mL; MIC [28]: 0.78 µg/mL; MIC [29]: 12.5 µg/mL; MIC [30]: 0.39 µg/mL; MIC [31]: 1.56 µg/mL; MIC [32]: 0.39 µg/mL"
"CNCC1CN(c2c(F)cc3c(=O)c(C(=O)O)cn(C4CC4)c3c2Cl)CC1C (stereo not shown) [Example 12, 8-Chloro-1-cyclopropyl-6-fluoro-1,4-dihydro-7-(3-methylaminomethyl-4-methyl-1-pyrrolidinyl)-4-oxo-3-quinolinecarboxylic acid]",0.05 µg/mL,0.05 µg/mL,0.0125 µg/mL,0.05 µg/mL,0.05 µg/mL,0.05 µg/mL,0.05 µg/mL,0.2 µg/mL,0.2 µg/mL,0.05 µg/mL,0.1 µg/mL,0.2 µg/mL,0.05 µg/mL,0.025 µg/mL,0.1 µg/mL,0.39 µg/mL,1.56 µg/mL,1.56 µg/mL,0.2 µg/mL,0.2 µg/mL,"MIC [19, 33]: 0.78 µg/mL; MIC [21, 33]: 0.1 µg/mL; MIC [23]: 0.39 µg/mL; MIC [24]: 0.2 µg/mL; MIC [25]: 0.1 µg/mL; MIC [26]: 0.39 µg/mL; MIC [27]: 0.2 µg/mL; MIC [28]: 0.2 µg/mL; MIC [29]: 0.78 µg/mL; MIC [30]: 0.1 µg/mL; MIC [31]: 0.05 µg/mL; MIC [32]: 0.39 µg/mL"

# Source: patent publication US4753953A, “Pyridonecarboxylic acid derivatives and antibacterial pharmaceutical compositions thereof” (priority 1985, dated 1988)
